Legend:
VvPR1 = assay: Induction of plant defense gene VvPR1 in grapevine calli, qRT-PCR (Example 5); type: cell-based, V. vinifera L. cv. Chardonnay; details: 10 mM in MPM1 medium, 4 days of culture; overexpressed when induction ratio ≧4
VvEDS1 = assay: Induction of plant defense gene VvEDS1 in grapevine calli, qRT-PCR (Example 5); type: cell-based, V. vinifera L. cv. Chardonnay; details: 10 mM in MPM1 medium, 4 days of culture; overexpressed when induction ratio ≧4

SMILES	expression of VvPR1 gene (VvPR1)	expression of VvEDS1 gene (VvEDS1)
O=C1[O][Bi]([OH])[O]c2ccccc21 [bismuth subsalicylate]	overexpress	overexpress
O=C(O)c1ccccc1O [salicylic acid]	overexpress	overexpress

Reference: patent publication US20170311603A1 (priority 2014, published 2017)
